Laboratory results reported in publication PMC8282704 (Clinical cancer research : an official journal of the …, 2021).

Legend:
[1] = system: PI3Kα isoform (both wild-type and mutated p110α); settings: cited from earlier work
[2] = system: patients with HER2-negative metastatic breast cancer; assay: Treatment-related adverse events; type: in vivo, human; settings: 11/43; N=1 at 250mg, N=10 at 350mg
[3] = system: other class I isoforms β, δ, and γ; settings: cited from earlier work
[4] = Plasma pharmacokinetics, phase I, cycle 1; type: in vivo, human; settings: 13 patients, with nab-paclitaxel
[5] = system: patients with HER2-negative metastatic breast cancer; type: in vivo
[6] = system: PIK3CA/AKT1/PTEN-altered metastatic TNBC; settings: cited from earlier work
[7] = system: hormone receptor-positive metastatic breast cancer; settings: cited from earlier work

What does the source list for `Cc1nc(NC(=O)N2CCC[C@H]2C(N)=O)sc1-c1ccnc(C(C)(C)C(F)(F)F)c1` [alpelisib]?
inhibition of PI3Kα isoform [1]: selectively inhibits PI3Kα isoform; Alpelisib dose reduction required, patients [2]: 26%; activity against the other class I isoforms β, δ, and γ [3]: significantly less active; Tmax, Cmax, and AUC (0–8 hrs) of alpelisib [4]: consistent with previous published reports; MTD of alpelisib ([5]; in combination with nab-paclitaxel 100mg/m^2 D1,8,15): not reached; RP2D of alpelisib ([5]; orally daily, in combination with nab-paclitaxel 100mg/m^2 D1,8,15 every 28 days): 350 mg

Which “PFS with addition to first-line paclitaxel” value [6] does the source give for `CC(C)NC[C@@H](C(=O)N1CCN(c2ncnc3c2[C@H](C)C[C@H]3O)CC1)c1ccc(Cl)cc1` [ipatasertib] here?
Its value is “failed to show improvement in PFS”.

With `NC1(C(=O)N[C@@H](CCO)c2ccc(Cl)cc2)CCN(c2ncnc3[nH]ccc23)CC1` [capivasertib] as the compound, how does the “PFS with addition to fulvestrant” value [7] read?
The value was “improvement in PFS”.
